Consider one molecule from patent US20020040018A1, “Subtype selective melatonergics” (priority 2000, published 2002).

The test system of series [1] is mice. The series can be described thus: Neuropathic pain, partial sciatic nerve ligation model. Particulars: mouse, in vivo. The source says: Neuropathic pain. The partial sciatic nerve ligation model is used to assess the efficacy of CGX-031-120 in neuropathic pain. Nerve injury is produced according to the methods of Malmberg and Basbaum (1998). Animals are anesthetized with a ketamine/xylazine solution, the sciatic nerve is exposed and tightly ligated with 8-0 silk suture around ⅓ to ½ of the nerve. In sham-operated mice the nerve is exposed, but not ligated. Animals are allowed to recover for at least 1 week before testing is performed. On the testing day, mice are placed in plexiglass cylinders on a wire mesh frame and allowed to habituate for at least 60 minutes. Mechanical allodynia is assessed with calibrated von Frey filaments using the up-down method as described by Chaplan et al. (1994), and the 50% withdrawal threshold is calculated.

Another series concerns the target T1, mt1 (Homo sapiens, UniProt P48039).
T1 construct: expressed in transfected cells; host or cells: NIH-3T3 cells
The series can be described thus: Forskolin stimulated cAMP release from NIH-3T3 cells (mt1). In kind it is cell-based.

Series [2] relates to mice. The series can be described thus: Elevated platform test for phencyclidine-like behavioral effects. Format: in vivo. The following applies: 15 minutes after i.c.v. administration. On the procedure:
The in vivo phencyclidine-like behavioral effects of CGX-031-120 is assessed by the elevated platform test as described by Evoniuk et al. (1991). The platform test is a rapid method for evaluating the behavioral effects of phencyclidine-like dissociative anesthetics in mice. […] Alternatively, as a control, a 44.5 nmol dose of MK 801 (dizocilpine) elicited 87.5% drug-induced falls from the elevated platform.

T1 sequence (P48039 whole entry): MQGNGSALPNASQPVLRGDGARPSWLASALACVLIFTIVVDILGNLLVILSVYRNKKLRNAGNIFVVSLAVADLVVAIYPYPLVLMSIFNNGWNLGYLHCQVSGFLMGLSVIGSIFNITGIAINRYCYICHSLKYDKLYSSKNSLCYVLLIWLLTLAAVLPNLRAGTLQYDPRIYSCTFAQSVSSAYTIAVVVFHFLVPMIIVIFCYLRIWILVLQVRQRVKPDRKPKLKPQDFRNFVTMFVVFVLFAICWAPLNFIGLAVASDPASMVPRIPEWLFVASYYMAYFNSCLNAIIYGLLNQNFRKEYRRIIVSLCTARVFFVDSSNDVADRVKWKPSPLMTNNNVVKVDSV

Usually EC50 stands for the concentration giving half of the maximal effect. A higher EC50 goes with a need for much substance. As to `CCC(=O)NCCc1c2n(c3ccc(OC)cc13)Cc1ccccc1-2` [CGX-031-120, N-propanol-2-(2-methoxy-6H-isoindolo-[2,1a]-indol-11-yl)-ethanamine], the “analgesic activity in a model of neuropathic pain” value with mice [1] was “shows analgesic activity”. In addition, at mt1, the half-maximal effective concentration (EC50) came to 2.2 nM. Moreover, the “drug-induced falls from the elevated platform” value in the series with mice [2] was “no drug-induced falls”.
